Measurements: article PMC10041525, “New Dual Inhibitors of Bacterial Topoisomerases with Broad-Spectrum Antibacterial Activity and In Vivo Efficacy against Vancomycin-Intermediate Staphylococcus aureus” (Journal of Medicinal Chemistry, 2023)
≈ marks a conversion by molar mass, not a printed value. Read-outs that look alike come from different tables or passages of the source.

Tested on: 100 A. baumannii strains (50 MDR, 50 non-MDR)
Assay: MIC broth microdilution at IHMA Europe, panel of 100 strains
Assay type: cell-based
Conditions: Acinetobacter baumannii, read-out: MIC

With CO/N=C(\C(=O)N[C@@H]1C(=O)N2C(C(=O)[O-])=C(C[N+]3(C)CCCC3)CS[C@H]12)c1csc(N)n1 [Cefepime, cefepime] the MIC (A. baumannii IHMA 1769782, Israel 2018, MDR) was greater than 32 µg/mL, the MIC (A. baumannii IHMA 1769910, Israel 2018, Non-MDR) was 8 µg/mL (≈ 16.6 µM) and the MIC (A. baumannii IHMA 1790317, Czech Republic 2018, Non-MDR) was 1 µg/mL (≈ 2.08 µM). For the same molecule, the MIC (A. baumannii IHMA 1790916, Romania 2018, Non-MDR) was 0.5 µg/mL (≈ 1.04 µM), the MIC (A. baumannii IHMA 1791877, Israel 2018, MDR) was greater than 32 µg/mL and the MIC (A. baumannii IHMA 1792961, Jordan 2018, MDR) was greater than 32 µg/mL. It also gave an MIC (A. baumannii IHMA 1795669, Tunisia 2018, Non-MDR) of 4 µg/mL (≈ 8.32 µM), an MIC (A. baumannii IHMA 1814276, Lebanon 2018, MDR) greater than 32 µg/mL and an MIC (A. baumannii IHMA 1815198, Kuwait 2018, MDR) greater than 32 µg/mL. It also gave an MIC (A. baumannii IHMA 1815856, Israel 2018, MDR) greater than 32 µg/mL, an MIC (A. baumannii IHMA 1829500, Georgia 2018, Non-MDR) of 1 µg/mL (≈ 2.08 µM) and an MIC (A. baumannii IHMA 1830924, United Kingdom 2018, Non-MDR) of 4 µg/mL (≈ 8.32 µM). For the same molecule, the MIC (A. baumannii IHMA 1849819, Kuwait 2018, MDR) was greater than 32 µg/mL, the MIC (A. baumannii IHMA 1849829, Kuwait 2018, Non-MDR) was 1 µg/mL (≈ 2.08 µM) and the MIC (A. baumannii IHMA 1857118, Slovenia 2018, Non-MDR) was 1 µg/mL (≈ 2.08 µM). The MIC (A. baumannii IHMA 1863631, France 2018, Non-MDR) was 1 µg/mL (≈ 2.08 µM), the MIC (A. baumannii IHMA 1884428, Italy 2018, Non-MDR) was 1 µg/mL (≈ 2.08 µM) and the MIC (A. baumannii IHMA 1884990, Germany 2018, Non-MDR) was 1 µg/mL (≈ 2.08 µM). The MIC (A. baumannii IHMA 1900538, Turkey 2018, Non-MDR) was 0.5 µg/mL (≈ 1.04 µM), the MIC (A. baumannii IHMA 1913773, Kenya 2018, Non-MDR) was 1 µg/mL (≈ 2.08 µM) and the MIC (A. baumannii IHMA 1926285, Qatar 2018, Non-MDR) was no more than 0.25 µg/mL. The MIC (A. baumannii IHMA 1926288, Qatar 2018, MDR) was 32 µg/mL (≈ 66.6 µM), the MIC (A. baumannii IHMA 1963732, Turkey 2019, MDR) was 32 µg/mL (≈ 66.6 µM) and the MIC (A. baumannii IHMA 1967860, Spain 2019, Non-MDR) was 4 µg/mL (≈ 8.32 µM). The MIC (A. baumannii IHMA 1971673, Latvia 2019, MDR) was greater than 32 µg/mL, the MIC (A. baumannii IHMA 1983151, Greece 2019, MDR) was 32 µg/mL (≈ 66.6 µM) and the MIC (A. baumannii IHMA 1984665, Lithuania 2019, MDR) was greater than 32 µg/mL. For the same molecule, the MIC (A. baumannii IHMA 1986738, Turkey 2019, MDR) was greater than 32 µg/mL, the MIC (A. baumannii IHMA 1987162, Croatia 2019, MDR) was greater than 32 µg/mL and the MIC (A. baumannii IHMA 1993615, Turkey 2019, MDR) was greater than 32 µg/mL. The MIC (A. baumannii IHMA 1994284, Italy 2019, MDR) was 32 µg/mL (≈ 66.6 µM), the MIC (A. baumannii IHMA 1995161, Czech Republic 2019, Non-MDR) was 1 µg/mL (≈ 2.08 µM) and the MIC (A. baumannii IHMA 1997936, Morocco 2019, Non-MDR) was 1 µg/mL (≈ 2.08 µM). For the same molecule, the MIC (A. baumannii IHMA 1999178, Belgium 2019, Non-MDR) was 1 µg/mL (≈ 2.08 µM), the MIC (A. baumannii IHMA 2003279, Turkey 2019, MDR) was greater than 32 µg/mL and the MIC (A. baumannii IHMA 2014931, South Africa 2019, Non-MDR) was 1 µg/mL (≈ 2.08 µM). It also gave an MIC (A. baumannii IHMA 2019315, Romania 2019, Non-MDR) of 0.5 µg/mL (≈ 1.04 µM), an MIC (A. baumannii IHMA 2020360, Croatia 2019, MDR) of 32 µg/mL (≈ 66.6 µM) and an MIC (A. baumannii IHMA 2031511, Greece 2019, Non-MDR) of 1 µg/mL (≈ 2.08 µM). For the same molecule, the MIC (A. baumannii IHMA 2031524, Greece 2019, MDR) was greater than 32 µg/mL, the MIC (A. baumannii IHMA 2034657, Tunisia 2019, Non-MDR) was 1 µg/mL (≈ 2.08 µM) and the MIC (A. baumannii IHMA 2035089, Serbia 2019, MDR) was 32 µg/mL (≈ 66.6 µM). For the same molecule, the MIC (A. baumannii IHMA 2035134, Serbia 2019, Non-MDR) was 1 µg/mL (≈ 2.08 µM), the MIC (A. baumannii IHMA 2038976, Hungary 2019, MDR) was 32 µg/mL (≈ 66.6 µM) and the MIC (A. baumannii IHMA 2051503, Serbia 2019, MDR) was greater than 32 µg/mL. The MIC (A. baumannii IHMA 2058329, Slovenia 2019, Non-MDR) was 1 µg/mL (≈ 2.08 µM), the MIC (A. baumannii IHMA 2065587, France 2019, Non-MDR) was 1 µg/mL (≈ 2.08 µM) and the MIC (A. baumannii IHMA 2099294, United Kingdom 2019, Non-MDR) was 4 µg/mL (≈ 8.32 µM). For the same molecule, the MIC (A. baumannii IHMA 2129256, Qatar 2019, Non-MDR) was 1 µg/mL (≈ 2.08 µM), the MIC (A. baumannii IHMA 2154584, Israel 2020, MDR) was greater than 32 µg/mL and the MIC (A. baumannii IHMA 2155340, Kenya 2020, MDR) was greater than 32 µg/mL. For the same molecule, the MIC (A. baumannii IHMA 2156634, Turkey 2020, MDR) was greater than 32 µg/mL and the MIC (A. baumannii IHMA 2156709, Turkey 2020, MDR) was greater than 32 µg/mL.
